“Also recorded” adds a separate entry of the source.
Experiments:
[1] = test system: isolated wildtype and CXCR2-deficient hepatocytes; assay: Release of exosomes from isolated hepatocytes (CD81 antigen ELISA); type: cell-based, mouse; conditions: GW4869 for 48 hrs
Method: FIG. 2. CXCR2 regulates the neutral sphingomyelinase/ceramide system to release exosomes. (A) CXCR2-deficient cells show higher concentrations of ceramide than wildtype hepatocytes as determined by staining of isolated hepatocytes with Cy3-coupled anti-ceramide antibodies (A, upper panel). The intensity of the fluorescence staining in panel a reflects ceramide levels. […] Data are representative for 4 similar stainings. (B) Ceramide activity in hepatocytes was determined by a ceramide kinase assay. Data are mean±SEM with n=4 per group. *P<0.05 compared to wild-type mice. (C) Neutral sphingomyelinase activity is increased in CXCR2-deficient hepatocytes compared to wild-type mice. Data are mean±SEM with n=4 per group. *P<0.05 compared to wild-type mice. […] Cells were treated with GW4869 for 48 hrs in Williams media supplemented with exosome-depleted FBS and the number of exosomes was determined using differential centrifugation and detection of exosomes using a CD81 antigen ELISA kit. Data are mean±SEM with n=4 per group, *P<0.05 compared to wild-type mice. […]
Exosomes were purified from serum and the culture media. […] The size of exosomes in the serum and the culture medium was determined using a Zetasizer Nano (Malvern Instruments, Malvern, UK) and the number of exosomes was assessed by the CD81-antigen ELISA kit (System Biosciences).

[2] = test system: sphingosine-1-phosphate (S1P) in hepatocytes; assay: Measurement of S1P in hepatocytes by ELISA; type: cell-based, mouse; conditions: pre-incubation of hepatocytes with SPHK I2 (20 μM)
[3] = test system: primary mouse hepatocytes; assay: Hepatocyte proliferation (BrdU incorporation)
Method: (A) Primary mouse hepatocytes from wild-type mice were treated with increasing doses of exosomes derived from wild-type or CXCR2-deficient hepatocytes for 24 hrs. Cell proliferation was determined via BrdU incorporation. Data are mean±SEM with n=8-16 per group. *P<0.05 compared to control mice. **P<0.05 compared to untreated samples.
Hepatocytes were treated with hepatocyte-derived exosomes for 24 hrs. DNA incorporation of 5-bromo-20-deoxyuridine (BrdU) was employed to evaluate hepatocyte proliferation by exosomes, and data were normalized by the amount of viable cells and expressed as a ratio compared with medium alone. A commercial BrdU cell proliferation ELISA system (Abcam, Cambridge, UK) was used for this assay.

O=C(/C=C/c1ccc(/C=C/C(=O)Nc2ccc(C3=NCCN3)cc2)cc1)Nc1ccc(C2=NCCN2)cc1 [GW4869]
concentration/release of exosomes from hepatocytes [1]: dose dependently blocked; also recorded: dose-dependently reduced

Oc1ccc(Nc2nc(-c3ccc(Cl)cc3)cs2)cc1 [SPHK I2]
exosome-induced production of S1P in hepatocytes [2]: prevented; also recorded: completely blocked | exosome-induced hepatocyte proliferation ([3]; hepatocytes treated with 5-20 μM SPHK I2): completely abrogated

Nc1ncnc2c1ncn2[C@@H]1O[C@H](COC(=O)c2ccc(S(=O)(=O)F)cc2)[C@@H](O)[C@H]1O [FSBA]
exosome-induced hepatocyte proliferation ([3]; exosomes treated with FSBA, washed, then added to primary hepatocytes): completely blocked
